{
  "source": "patent US20140357595A1",
  "about": "“METHODS OF PREVENTING AND TREATING RECURRENCE OF A HEPATITIS C VIRUS INFECTION IN A SUBJECT AFTER THE SUBJECT HAS RECEIVED A LIVER TRANSPLANT” (priority 2013, published 2014)",
  "origin": "cited, not measured here",
  "key": {"[1]": {"biological_target": "T1, HCV NS5B RNA dependent RNA polymerase (Hepatitis C virus genotype 1a, UniProt P27958)", "T1 construct": "the HCV NS5B RNA dependent RNA polymerase", "T1 sequence (P27958 2421-3011)": "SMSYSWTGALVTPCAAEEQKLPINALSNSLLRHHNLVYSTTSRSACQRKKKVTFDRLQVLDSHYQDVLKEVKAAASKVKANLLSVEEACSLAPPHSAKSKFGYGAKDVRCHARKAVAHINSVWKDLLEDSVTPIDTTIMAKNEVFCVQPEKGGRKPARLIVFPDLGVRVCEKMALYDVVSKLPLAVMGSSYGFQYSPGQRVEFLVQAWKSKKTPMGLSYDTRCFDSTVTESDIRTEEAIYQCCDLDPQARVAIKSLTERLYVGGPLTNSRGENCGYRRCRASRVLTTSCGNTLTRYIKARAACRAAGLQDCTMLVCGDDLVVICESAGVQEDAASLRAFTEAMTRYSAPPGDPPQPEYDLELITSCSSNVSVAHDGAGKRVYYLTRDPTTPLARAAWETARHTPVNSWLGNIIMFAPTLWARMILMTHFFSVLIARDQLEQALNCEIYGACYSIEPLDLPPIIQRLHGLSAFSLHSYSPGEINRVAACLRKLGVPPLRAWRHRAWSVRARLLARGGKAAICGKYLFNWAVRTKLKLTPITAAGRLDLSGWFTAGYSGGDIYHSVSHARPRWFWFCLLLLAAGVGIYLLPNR"}, "[2]": {"details": "clinical trials"}},
  "data": [
    {"compound": "C[C@@]1(F)[C@H](O)[C@@H](COP(=O)(O)OP(=O)(O)OP(=O)(O)O)O[C@H]1n1ccc(=O)[nH]c1=O", "note": "[5′-triphosphate metabolite of Compound 1]", "values": [
      {"measurement": "inhibition of HCV replication mediated by the HCV NS5B RNA dependent RNA polymerase", "setting": "[1]", "result": "potent and selective inhibitor"}
    ]},
    {"compound": "CC(C)OC(=O)[C@H](C)N[P@](=O)(OC[C@H]1O[C@@H](n2ccc(=O)[nH]c2=O)[C@](C)(F)[C@@H]1O)Oc1ccccc1", "note": "[Compound 1, (S)-isopropyl 2-(((S)-(((2R,3R,4R,5R)-5-(2,4-dioxo-3,4-dihydropyrimidin-1(2H)-yl)-4-fluoro-3-hydroxy-4-methyltetrahydrofuran-2-yl)methoxy)(phenoxy)phosphoryl)amino)propanoate]", "values": [
      {"measurement": "tolerability", "setting": "[2]", "result": "well-tolerated"}
    ]}
  ]
}
